The source of these data is patent US10889573B2, “Anthelmintic quinoline-3-carboxamide derivatives” (Bayer Animal Health GMBH, priority 2016, dated 2021).

Assay [1] relates to Cooperia curticei. Conditions: Cooperia curticei, 120 h, read-out: activity (larval mortality).
Method: In Vitro Assay 6: Cooperia curticei (COOPCU L3)
Solvent: dimethyl sulfoxide
Approximately 40 nematode larvae (Cooperia curticei) are transferred into a test tube containing the compound solution.
After 5 days percentage of larval mortality is recorded. 100% efficacy means all larvae are killed; 0% efficacy means no larvae are killed.
The test system of assay [2] is Dirofilaria immitis microfilariae. Briefly: In vitro assay 3: Dirofilaria immitis microfilariae (DIROIM L1), motility. Conditions: 72 h, read-out: EC50 (reduction of motility), 72 h incubation.
The target in assay [3] is C. elegans Slo-1a (Caenorhabditis elegans, UniProt Q95V25). Particulars: pE50 (negative decadic logarithm of EC50), CHO cells expressing C. elegans Slo-1a, voltage sensitive dye.
Sequence of C. elegans Slo-1a (Q95V25 whole entry): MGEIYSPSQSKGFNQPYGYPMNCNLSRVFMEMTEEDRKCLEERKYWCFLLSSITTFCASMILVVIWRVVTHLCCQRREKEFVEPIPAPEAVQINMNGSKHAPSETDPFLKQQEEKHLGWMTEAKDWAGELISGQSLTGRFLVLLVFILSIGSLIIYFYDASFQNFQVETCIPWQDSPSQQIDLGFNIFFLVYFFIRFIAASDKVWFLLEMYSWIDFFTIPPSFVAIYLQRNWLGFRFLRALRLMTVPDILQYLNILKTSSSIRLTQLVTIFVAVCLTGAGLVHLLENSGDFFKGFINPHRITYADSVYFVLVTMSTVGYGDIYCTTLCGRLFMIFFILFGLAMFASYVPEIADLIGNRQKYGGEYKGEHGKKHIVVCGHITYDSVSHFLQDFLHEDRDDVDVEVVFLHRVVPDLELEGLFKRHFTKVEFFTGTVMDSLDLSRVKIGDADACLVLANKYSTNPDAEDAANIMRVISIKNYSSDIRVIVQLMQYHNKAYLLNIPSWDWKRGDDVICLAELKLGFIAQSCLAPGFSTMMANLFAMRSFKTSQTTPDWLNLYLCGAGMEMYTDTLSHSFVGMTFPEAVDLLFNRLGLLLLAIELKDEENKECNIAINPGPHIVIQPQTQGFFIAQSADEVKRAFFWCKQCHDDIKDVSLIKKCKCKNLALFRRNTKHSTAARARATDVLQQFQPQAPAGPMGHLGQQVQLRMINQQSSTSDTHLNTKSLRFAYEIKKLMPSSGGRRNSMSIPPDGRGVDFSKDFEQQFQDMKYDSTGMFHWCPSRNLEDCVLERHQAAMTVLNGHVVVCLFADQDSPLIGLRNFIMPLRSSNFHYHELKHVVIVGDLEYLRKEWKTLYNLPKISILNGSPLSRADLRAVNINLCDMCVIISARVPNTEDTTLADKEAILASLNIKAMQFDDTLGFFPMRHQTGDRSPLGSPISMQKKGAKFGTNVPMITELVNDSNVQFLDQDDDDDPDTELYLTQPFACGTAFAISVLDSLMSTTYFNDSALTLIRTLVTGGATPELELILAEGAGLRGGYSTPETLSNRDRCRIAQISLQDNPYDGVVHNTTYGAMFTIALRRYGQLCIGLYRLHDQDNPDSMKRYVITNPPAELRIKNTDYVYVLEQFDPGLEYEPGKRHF
Method: In Vitro Assay 1: C. elegans Slo-1a—Action at a Recombinant C. elegans Cell Line
Cells were cultured at 37° C. and 5% CO2 in MEMalpha with Gutamax I (Invitrogen, Nr.: 32571), supplemented with 10% (v/v) heat inactivated fetal bovine serum (Invitrogen, Nr.: 10500), G418 (1 mg/ml, Invitrogen, Nr.: 10131). Cells were detached using Accutase (Sigma, Nr.: A6964).
Membrane Potential Measurements
Laboratory compound testing was performed on 384-well microtiter plates (MTPs, Greiner, Nr.: 781092). 8000 cells/well were plated onto 384-well MTPs and cultured for 20 to 24 hours at 37° C. and 5% CO2. After removal of the cell culture medium, the cells were washed once with tyrode (150 mM NaCl, 0.3 mM KCl, 2 mM CaCl2, 1 mM MgCl2, 0.8 mM NaH2PO4, 5 mM Glucose, 28 mM Hepes, pH 7.4) and then loaded with the voltage sensitive dye of the Membrane Potential Assay Kit diluted in tyrode for 1 h at room temperature.
After starting the measurement of fluorescence using a FLIPR Tetra (Molecular Devices, Exc. 510-545 nm, Emm. 565-625 nm), test compounds were added followed by the addition of KCl tyrode (final assay concentration: 70 mM KCl, 2 mM CaCl2, 1 mM MgCl2, 0.8 mM NaH2PO4, 5 mM Glucose, 28 mM Hepes, pH 7.4, including the voltage sensitive dye). The measurement was completed after 7 minutes.
The data were evaluated by using the ActivityBase XLfit software (IDBS) for curve fitting and calculation of the half-maximal effective concentration (EC50) and are reported as negative decadic logarithm (pE50).
Assay [4] deals with Dirofilaria immitis third-stage larvae. Briefly: In vitro assay 4: Dirofilaria immitis (DIROIM L4), motility. Conditions: 72 h, read-out: EC50 (reduction of motility).
For assay [5], the system named is Nippostrongylus brasiliensis. Nature of the assay: In vitro assay 2: Nippostrongylus brasiliensis (NIPOBR), acetylcholine esterase readout. Conditions: read-out: activity (reduction of AChE compared to negative control); for inhibition at 1 µg/mL: 1 μg/ml; for inhibition at 10 µg/mL: 10 μg/ml. The protocol: In Vitro Assay 2: Nippostrongylus brasiliensis (NIPOBR)
Adult Nippostrongylus brasiliensis were washed with saline buffer containing 100 U/ml penicillin, 0.1 mg/ml streptomycin and 2.5 μg/ml amphotericin B. Test compounds were dissolved in DMSO and worms were incubated in medium in a final concentration of 10 μg/ml (10 ppm) respectively 1 μg/ml (1 ppm). An aliquot of the medium was used to determine the acetylcholine esterase activity in comparison to a negative control. The principle of measuring acetylcholine esterase as readout for anthelmintic activity was described in Rapson et al (1986) and Rapson et al (1987).

For assay [6], the system named is Haemonchus contortus. Particulars: 120 h, read-out: activity (larval mortality).
Method: In Vitro Assay 7: Haemonchus contortus (HAEMCO L3)
Solvent: dimethyl sulfoxide
Approximately 40 larvae of the red stomach worm (Haemonchus contortus) are transferred into a test tube containing compound solution.
After 5 days the percentage of larval mortality is recorded. 100% efficacy means all larvae are killed, 0% efficacy means no larvae are killed.

Bounds are passed on as bounds.

By mortality is commonly meant the percentage killed. In general, EC50 refers to the concentration at which the effect is half-maximal. On to `O=C(N[C@H]1CCOc2ccccc21)c1cnc2c(-c3ccc(F)c(Cl)c3)cccc2c1N1CCC(O)C1` (mixture of isomers) [Example 196], for which the mortality at 4 ppm in assay [1] stood at 90%. Also, the mortality at 20 ppm in assay [1] was 100%. Besides, the EC50 in assay [2] was less than 0.1 µg/mL; in assay [3] it was 3.16 to 31.6 nM; in assay [4], less than 0.1 µg/mL.

Regarding `Cc1cc(C)cc(-c2cccc3c(Cl)c(C(=O)N[C@H]4CCCc5ccccc54)cnc23)c1` [Example 1, 4-chloro-8-(3,5-dimethylphenyl)-N-[(1S)-1,2,3,4-tetrahydronaphthalen-1-yl]quinoline-3-carboxamide], the EC50 in assay [2] was less than 0.1 µg/mL; in assay [3], 31.6 to 316 nM; in assay [4], less than 1 µg/mL.

With `O=C(N[C@H]1CCCc2ccccc21)c1cnc2c(-c3cc(Cl)cc(Cl)c3)cccc2c1Cl` [Example 2], the results for the EC50 in assay [2], in assay [3] and in assay [4] were less than 10 µg/mL, 3.16 to 31.6 nM and less than 1 µg/mL, respectively.

In the case of `O=C(N[C@H]1CCOc2ccccc21)c1cnc2c(-c3cc(Cl)c(F)c(Cl)c3)cc(F)cc2c1N1CCOCC1` [Example 43], in assay [5], the inhibition at 1 µg/mL was more than 80%. For the same compound, the inhibition at 10 µg/mL in assay [5] was more than 80%. For the same compound, the EC50 in assay [2] is less than 0.1 µg/mL; in assay [3], less than 3.16 nM; in assay [4], less than 0.1 µg/mL.

As to `CN(C)c1c(C(=O)N[C@H]2CCOc3ccccc32)cnc2c(-c3ncccc3F)cccc12` [Example 62], the inhibition at 10 µg/mL in assay [5] is more than 80%. Besides, the EC50 in assay [2] was less than 1 µg/mL; in assay [3], 31.6 to 316 nM; in assay [4] it was less than 0.1 µg/mL.

Take `COc1cc(-c2cccc3c(N(C)C)c(C(=O)N[C@H]4CCOc5ccccc54)cnc23)ccn1` [Example 64]: the inhibition at 10 µg/mL in assay [5] is more than 80%. Also, the EC50 in assay [2] was less than 0.1 µg/mL; in assay [3], 3.16 to 31.6 nM; in assay [4], less than 0.1 µg/mL.

For the compound `O=C(N[C@H]1CCc2ccccc21)c1cnc2c(-c3cc(Cl)cc(Cl)c3)cccc2c1N1CC(F)C1` [Example 119], the inhibition at 1 µg/mL in assay [5] is more than 80%. The inhibition at 10 µg/mL in assay [5] was more than 80%. Further, the EC50 in assay [2] was less than 0.1 µg/mL; in assay [3], 3.16 to 31.6 nM; in assay [4], less than 0.1 µg/mL.

`O=C(N[C@H]1CCOc2ccccc21)c1cnc2c(-c3cccc(F)c3Cl)cccc2c1N1CCOCC1` [Example 238]: in assay [5], the inhibition at 1 µg/mL is more than 80%. For the same compound, the mortality at 20 ppm in assay [1] was 80%. For the same compound, the EC50 in assay [2] was less than 0.1 µg/mL; in assay [3] it was less than 3.16 nM; in assay [4] it was less than 0.1 µg/mL.

For the compound `O=C(N[C@H]1CCOc2ccccc21)c1cnc2c(-c3cc(Cl)cc(Cl)c3)cccc2c1N1CCC[C@H]1C(=O)O` [Example 261, 1-{8-(3,5-dichlorophenyl)-3-[(4S)-3,4-dihydro-2H-chromen-4-ylcarbamoyl]quinolin-4-yl}-L-proline], the inhibition at 1 µg/mL in assay [5] is more than 80%. Further, the EC50 in assay [2] and in assay [4] was less than 0.1 µg/mL throughout.

As for `O=C(O)CNc1c(C(=O)N[C@H]2CCOc3ccccc32)cnc2c(-c3cc(Cl)cc(Cl)c3)cccc12` [Example 276], the inhibition at 1 µg/mL in assay [5] was more than 80%. The mortality at 20 ppm stood at 90% in assay [1] and 80% in assay [6]. Further, the EC50 in assay [2] was less than 0.1 µg/mL; in assay [3] it was 31.6 to 316 nM.

As for `CN(C)c1c(C(=O)N[C@H]2CCOc3ccccc32)cnc2c(-c3c(F)cccc3F)cccc12` [Example 277], in assay [5], the inhibition at 1 µg/mL was more than 80%. In addition, the EC50 was less than 0.1 µg/mL in assay [2], less than 3.16 nM in assay [3] and less than 0.1 µg/mL in assay [4].

`O=C(N[C@H]1CCOc2ccccc21)c1cnc2c(-c3c(F)cccc3F)c(F)ccc2c1N1CCOCC1` [Example 278]: the results for the EC50 in assay [2], in assay [3] and in assay [4] were less than 0.1 µg/mL, less than 3.16 nM and less than 0.1 µg/mL, respectively.

On to `O=C(N[C@H]1CCOc2ccccc21)c1cnc2c(-c3cc(Cl)cc(Cl)c3)cccc2c1N1CC[C@@H](O)C1` [Example 283], for which the inhibition at 1 µg/mL in assay [5] was more than 80%. The EC50 in assay [2] was less than 0.1 µg/mL; in assay [3] it was less than 3.16 nM; in assay [4] it was less than 0.1 µg/mL.

For the compound `C[C@H]1CN(c2c(C(=O)N[C@H]3CCOc4ccccc43)cnc3c(-c4cc(Cl)cc(Cl)c4)cccc23)CCO1` [Example 290], the inhibition at 1 µg/mL in assay [5] was more than 80%. Also, the results for the EC50 in assay [2], in assay [3] and in assay [4] were less than 0.1 µg/mL, less than 3.16 nM and less than 0.1 µg/mL, respectively.

As for `O=C(N[C@H]1CCOc2ccccc21)c1cnc2c(-c3cccc(Cl)c3Cl)c(C(F)(F)F)ccc2c1N1CCOCC1` [Example 314], the inhibition at 1 µg/mL in assay [5] is more than 80%. Moreover, the mortality at 20 ppm in assay [1] was 90%. Moreover, the figures for the EC50 in assay [2], in assay [3] and in assay [4] were less than 0.1 µg/mL, less than 3.16 nM and less than 0.1 µg/mL, respectively.

Turning to `CN(C)c1c(C(=O)N[C@H]2CCOc3ccccc32)cnc2c(-c3cccc(Cl)c3Cl)c(C(F)(F)F)ccc12` [Example 315], in assay [5], the inhibition at 1 µg/mL is more than 80%. Besides, the mortality at 20 ppm in assay [1] turned out to be 80%. Further, the EC50 was less than 0.1 µg/mL in assay [2], less than 3.16 nM in assay [3] and less than 0.1 µg/mL in assay [4].

On to `O=C(N[C@H]1CCOc2ccccc21)c1cnc2c(-c3cccc(OC(F)(F)F)c3)cccc2c1N1CCOCC1` [Example 322], for which the inhibition at 1 µg/mL in assay [5] was more than 80%. In assay [1], the mortality at 20 ppm worked out at 80%. For the same compound, the EC50 is less than 0.1 µg/mL in assay [2], less than 3.16 nM in assay [3] and less than 0.1 µg/mL in assay [4].

Regarding `N#CCc1c(C(=O)N[C@H]2CCOc3ccccc32)cnc2c(-c3cc(Cl)cc(Cl)c3)cccc12` [Example 355, 4-(cyanomethyl)-8-(3,5-dichlorophenyl)-N-[(4S)-3,4-dihydro-2H-chromen-4-yl]quinoline-3-carboxamide], the inhibition at 1 µg/mL in assay [5] was more than 80%. For the same compound, the EC50 in assay [2] is less than 0.1 µg/mL; in assay [3], less than 3.16 nM; in assay [4], less than 0.1 µg/mL.

In the case of `NC(=O)Cc1c(C(=O)N[C@H]2CCOc3ccccc32)cnc2c(-c3cc(Cl)cc(Cl)c3)cccc12` [Example 360, 4-(2-amino-2-oxoethyl)-8-(3,5-dichlorophenyl)-N-[(4S)-3,4-dihydro-2H-chromen-4-yl]quinoline-3-carboxamide], the inhibition at 1 µg/mL in assay [5] is more than 80%. Further, the results for the EC50 in assay [2], in assay [3] and in assay [4] were less than 0.1 µg/mL, 3.16 to 31.6 nM and less than 0.1 µg/mL, respectively.

Turning to `N#Cc1c(C(=O)N[C@H]2CCOc3ccccc32)cnc2c(-c3cc(Cl)cc(Cl)c3)cccc12` [Example 362, 4-cyano-8-(3,5-dichlorophenyl)-N-[(4S)-3,4-dihydro-2H-chromen-4-yl] quinoline-3-carboxamide], in assay [5], the inhibition at 1 µg/mL was more than 80%. In assay [5], the inhibition at 10 µg/mL is more than 80%. Besides, the EC50 in assay [2] and in assay [4] was less than 0.1 µg/mL throughout.

`O=C(N[C@H]1CCOc2ccccc21)c1cnc2c(-c3cc(Cl)sc3Cl)cccc2c1N1CCOCC1` [Example 441]: in assay [5], the inhibition at 1 µg/mL is more than 80%. Moreover, the EC50 in assay [2] is less than 0.1 µg/mL; in assay [3], less than 3.16 nM; in assay [4] it was less than 0.1 µg/mL.

With `O=C(N[C@H]1CCOc2ccccc21)c1cnc2c(-c3sccc3Cl)cccc2c1N1CCOCC1` [Example 442], the EC50 was less than 0.1 µg/mL in assay [2], less than 3.16 nM in assay [3] and less than 0.1 µg/mL in assay [4].

Regarding `Cc1ccc(C)c(-c2cccc3c(N(C)C)c(C(=O)N[C@H]4CCOc5ccccc54)cnc23)c1` [Example 471], in assay [5], the inhibition at 1 µg/mL was more than 80%. Further, the mortality at 20 ppm in assay [1] came out at 80%. The mortality at 4 ppm in assay [6] was determined as 80%. Besides, the EC50 in assay [2] is less than 0.1 µg/mL; in assay [3], 3.16 to 31.6 nM.

For the compound `C=Cc1c(C(=O)N[C@H]2CCOc3ccccc32)cnc2c(-c3cc(Cl)cc(Cl)c3)cccc12` [Example 478], in assay [5], the inhibition at 1 µg/mL is more than 80%. Also, the EC50 was less than 0.1 µg/mL in assay [2], less than 3.16 nM in assay [3] and less than 0.1 µg/mL in assay [4].

Take `CN(C)c1c(C(=O)NC2CSc3ccccc32)cnc2c(-c3cc(Cl)cc(Cl)c3)cccc12` (stereo not drawn) [Example 493]: the results for the EC50 in assay [2], in assay [3] and in assay [4] were less than 0.1 µg/mL, 3.16 to 31.6 nM and less than 0.1 µg/mL, respectively.

Consider `CCc1c(C(=O)N[C@H]2CCOc3ccccc32)cnc2c(-c3cccc(OC(F)(F)F)c3)cccc12` [Example 570], for which the inhibition at 1 µg/mL in assay [5] was more than 80%. Also, the concentration giving a half-maximal response (EC50) was less than 0.1 µg/mL in assay [2], 3.16 to 31.6 nM in assay [3] and less than 0.1 µg/mL in assay [4].

On to `CN(C)c1c(C(=O)N[C@H]2CCOc3ccccc32)cnc2c(-c3cc(C#N)cc(Cl)c3Cl)cccc12` [Example 624], for which the inhibition at 1 µg/mL in assay [5] is more than 80%. Further, in assay [1], the mortality at 4 ppm was determined as 80%. For the same compound, the mortality at 20 ppm in assay [1] was found to be 100%; in assay [6], 80%. In addition, the EC50 in assay [2] is less than 0.1 µg/mL; in assay [3] it was less than 3.16 nM.

As to `CC(=O)N(C)Cc1c(C(=O)N[C@H]2CCOc3ccccc32)cnc2c(-c3cc(Cl)cc(Cl)c3)cccc12` [Example 631], the inhibition at 1 µg/mL in assay [5] is more than 80%. The mortality at 4 ppm in assay [1] and in assay [6] was 100% throughout. In addition, the mortality at 20 ppm in assay [1] and in assay [6] was 100% in each case. Further, the EC50 was less than 10 µg/mL in assay [2] and less than 3.16 nM in assay [3].
